What was measured:
CB1 cannabinoid receptor = CB1 cannabinoid receptor (Homo sapiens, UniProt P21554); details: background statement; cited from earlier work
CB1 = CB1 (Homo sapiens, UniProt P21554); details: background statement; cited from earlier work
[1] = tested on: mouse primary spinal cord cultures; test: TBH oxidative damage in mixed spinal cord cultures (LDH release)
[2] = tested on: hSOD1^G93A mice (ALS mice); test: Rotarod endurance (disease progression) in hSOD1^G93A mice; format: in vivo; details: for Increase of A50% (age at which endurance declined to 50%) per 10 mg/kg of THC; A.(dose) estimate: nonlinear mixed effects model, rotarod; for Days from 9 to 1 min / Days to 50% endurance: prediction based on model
Protocol: (§1) hSOD1^G93A mice (ALS mice) were administered Δ^9-THC (5 and 10 mg/kg body weight) or vehicle beginning at 60 days of age, i.e., prior to onset of disease signs. The earliest clinical signs of disease observed were tremors and shaking of their limbs when mice were suspended briefly in the air by their tails. These signs were never seen in non-transgenic littermates, but were always seen in hSOD^G93A mice after 75 days. In a subsequent set of experiments, mice were administered 20 mg/kg Δ^9-THC beginning on day 75 when tremors were first observed, i.e., after onset of disease signs. Mice were evaluated on a rotarod to follow disease progression.
In order to assess the effect of Δ^9-THC on disease progression, a logistic response curve was fit to the endurance time for each mouse using a nonlinear mixed effects model. For these experiments, each mouse was assessed on the rotarod at 5 and 10 rpm. […] A50% increased 3.3 days (±1.1 day) per 10 mg/kg of THC (2-sided p=0.003). In other words, disease progression as assessed by rotarod performance was delayed 3.3 days in the 10 mg/kg and 6.6 days in the 20 mg/kg group as compared to the vehicle treated animals. This represents a 3% increase in motor performance endurance in the 10 mg/kg group and a 6% increase in the 20 mg/kg group. Note that the increase in the 20 mg/kg group was not affected by the delay in initiation of treatment.
Animals were assessed later in the disease by testing them at the slower rotarod speed (5 rpm). In the data analysis, A50% increased 6.5 days (±0.4 day) when changing from 10 rpm to 5 rpm. However, the rate of decline increased by a factor of 2 in going from 10 rpm to 5 rpm. This rate of decline can also be understood by expressing it as number of days to decline from 9 minutes to 1-minute endurance, based on the fitting equation. At 10 rpm, it took 17.1 (±1.76) days to decline from 9 to 1 minute vs. 8.55 (±0.88) days at 5 rpm. […] FIG. 1a. Δ^9-THC delays progression of disease in hSOD1^G93A mice. Motor function was tested weekly on the rotarod at 10 and 5 rpm. The decline in endurance over time for each animal at 10 rpm is shown in (a). Mouse numbers 1-13 correspond to vehicle treated animals, numbers 1001-1008 correspond to the 10 mg/kg Δ^9-THC treatment group, and 2001-2009 correspond to the 20 mg/kg Δ^9-THC treatment group.
FIG. 1b Logistic response curves showing declines based on fitting a logistic model to observed data. Solid curves are tests at 10 rpm, dashed curves for 5 rpm. The three curves for each rpm are for doses of 0 (vehicle, blue), 10 (mg/kg Δ^9-THC, green) and 20 (mg/kg Δ^9-THC, red). Parameters for curves are based on a nonlinear mixed effects model given by Time=10/(1+exp((Age-A)/B)).

[3] = tested on: hSOD1^G93A mice (ALS mice); test: Behaviour and body weight of treated hSOD1^G93A mice; format: in vivo
Protocol: as §1

[4] = tested on: hSOD1^G93A mice (ALS mice); test: Survival of hSOD1^G93A mice; format: in vivo
Protocol: as §1
In these experiments, the treatment effect was to slow the progression of disease (FIG. 1b). Furthermore, treatment with Δ^9-THC improved survival. […] Treatment with 10 mg/ kg Δ^9-THC extended mean survival from 125.9±1.6 days (vehicle, n=15) to 131.8±2.4 days (Δ^9-THC, n=8, p<0.05)(FIG. 2a, c). This represents a […] increase in survival in the 10 mg/ kg Δ^9-THC-treated group. At a (delayed) dose of 20 mg/kg the increase in mean survival was 6.4 days (5.1%).
FIG. 2. Δ^9-THC extends survival in hSOD1^G93A mice. Cumulative survival in hSOD1^G93A mice treated with 10 mg/kg Δ^9-THC (a) or 20 mg/kg Δ^9-THC (b). Mortality of hSOD1^G93A mice treated with Δ^9-THC or vehicle (c).

[5] = tested on: primary neuronal cultures prepared from mouse spinal cord; details: Abood et al, Neurosci Lett 309:197-201, 2001; cited from earlier work
rodents = test: Motor toxicity in rodents; format: in vivo; details: intraperitoneally
Protocol: For THC the effective dose range should be 10 mg-70 mg/kg/day intraperitoneally in rodents. Motor toxicity is seen at 84 mg/kg/day. An estimate of effective dose range in rodents can be obtained from comparison to other measures of bioactivity of these compounds, e.g. in analgesia and/or anticonvulsant activity. […] However, other routes of administration may include intravenous, inhaled or sub-lingual, formulations such as in a patch or a spray, whereby the doses would most likely be different (e.g. 100 mg/day in a patch) in both rodents and humans.

[6] = tested on: primary neuronal cultures prepared from mouse spinal cord; test: Kainate excitotoxicity in spinal cord neuronal cultures; format: cell-based; details: previously observed
ALS patients = test: Open label crossover escalating dose study of Marinol in ALS patients; format: in vivo, humans
[7] = rpm 10, dose 10 as printed (r11)

Sequence of CB1 cannabinoid receptor (P21554 whole entry): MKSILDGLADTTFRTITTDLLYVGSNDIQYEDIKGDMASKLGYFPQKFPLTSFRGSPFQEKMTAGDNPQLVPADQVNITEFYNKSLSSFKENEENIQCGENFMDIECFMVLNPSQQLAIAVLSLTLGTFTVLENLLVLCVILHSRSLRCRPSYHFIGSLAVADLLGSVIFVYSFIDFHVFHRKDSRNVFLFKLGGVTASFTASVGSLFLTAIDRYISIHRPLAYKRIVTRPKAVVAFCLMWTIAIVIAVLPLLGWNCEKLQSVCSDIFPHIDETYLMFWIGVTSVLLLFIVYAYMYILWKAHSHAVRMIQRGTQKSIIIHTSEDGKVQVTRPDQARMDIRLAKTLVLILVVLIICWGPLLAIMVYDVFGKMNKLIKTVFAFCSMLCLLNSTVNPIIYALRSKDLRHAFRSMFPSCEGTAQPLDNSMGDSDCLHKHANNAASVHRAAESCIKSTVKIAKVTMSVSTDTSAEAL
Sequence of CB1 (P21554 whole entry): as above

SMILES: CCCCCc1cc(O)c2c(c1)OC(C)(C)C1CCC(CO)=CC21 (stereo not shown) [11-hydroxy-THC]
- Agonist potency/activity relative to THC (CB1 cannabinoid receptor): more active than its parent

SMILES: CCCCCCC(C)(C)c1cc(O)c2c(c1)OC(C)(C)[C@@H]1CC=C(CO)C[C@@H]21 [HU-210]
- Activity at central (CB1) receptor (CB1 cannabinoid receptor): retains activity at central (CB1)

SMILES: CCCCCCC(C)(C)c1cc(O)c2c(c1)OC(C)(C)[C@H]1CC=C(CO)C[C@H]21 [HU-211, dexanabinol]
- Activity at central (CB1) receptor (CB1 cannabinoid receptor): inactive

SMILES: CCCCCCCC/C=C\CCCCCCCC(N)=O [Oleamide]
- Binding to CB1 (CB1): does not bind CB1

SMILES: CCCc1cc(O)c2c(c1)OC(C)(C)[C@@H]1CCC(C)=C[C@@H]21 [Propyl-THC]
- Agonist potency/activity relative to THC (CB1 cannabinoid receptor): less agonist activity than THC

SMILES: Cc1c(C(=O)NN2CCCCC2)nn(-c2ccc(Cl)cc2Cl)c1-c1ccc(Cl)cc1 [SR141716A]
- Block of the antioxidant effect of Δ^9-THC ([1]; 1 μM SR141716A plus 0.5 μM Δ^9-THC, TBH): not blocked

SMILES: CCCCCc1cc(O)c2c(c1)OC(C)(C)[C@@H]1CCC(C)=C[C@@H]21 [Δ^9-THC, delta-9-tetrahydrocannabinol]
- Delay of disease progression as assessed by rotarod performance vs vehicle ([2]; 10 mg/kg): 3.3 days
- Increase in motor performance endurance ([2]; 10 mg/kg): 3%
- Increase in motor performance endurance ([2]; 20 mg/kg): 6%
- Delay of disease progression as assessed by rotarod performance vs vehicle ([2]; 20 mg/kg, from day 75): 6.6 days
- Increase of A50% (age at which endurance declined to 50%) per 10 mg/kg of THC; A.(dose) estimate [2]: 3.29 days
- Increase of A50% (age at which endurance declined to 50%) per 10 mg/kg of THC; A.(dose) estimate ([2]; listed as THC): 3.3 days
- Days from 9 to 1 min ([2]; rpm 5, dose 10): 8.55 days
- Days to 50% endurance ([2]; rpm 5, dose 10): 109.8 days
- Days from 9 to 1 min ([2]; rpm 5, dose 20): 8.55 days
- Days to 50% endurance ([2]; rpm 5, dose 20): 113.1 days
- Days from 9 to 1 min ([2]; rpm 10, dose 10 (r10)): 17.10 days
- Days to 50% endurance ([2]; rpm 10, dose 10 (r10)): 103.3 days
- Days from 9 to 1 min [2, 7]: 17.10 days
- Days to 50% endurance [2, 7]: 106.6 days
- Weights, difference between treatment groups ([3]; 5, 10, 20 mg/kg vs vehicle): no significant difference in weights
- Overt behavioral changes ([3]; any of the doses given (5, 10, 20 mg/kg)): No overt behavioral changes
- Survival ([4]; 5 mg/kg): trend towards increased survival
- Mean survival ([4]; 10 mg/kg, n=8, vehicle 125.9±1.6 days): 131.8 ± 2.4 days
- Cytotoxicity ([1]; 200 μM TBH for 5 hours in the presence of 0.5 μM Δ^9-THC, TBH alone 74 (±14) %, n=4): 28 (±8) %
- Kainate toxicity [5]: effectively reduce kainate toxicity
- Dose at which motor toxicity is seen (rodents): 84 mg/kg/day
- Protection of spinal cord neurons against direct excitotoxin (kainate) exposure, compared with NBQX [6]: as effective as the anti-excitotoxic compound NBQX
- Patients showing reduction in rate of decline of ALSFRS (ALS patients; 3 month trial period): 11 of the 19
- Serious adverse events (ALS patients; 25 patients treated, one death unrelated to drug effect): no other serious adverse events
- Symptomatic benefits (ALS patients; ALS patients while taking Marinol): Symptomatic benefits were seen in insomnia, appetite, fasciculations and spasticity
- Tolerability (ALS patients; ALS patients, oral, escalating dose 2.5-10 mg, 3 months): well tolerated
- Tolerability (ALS patients; humans, 10 mg/day orally): well tolerated
- Average rate of decline (ALSFRS) (ALS patients; when patients were taking drug): 27%
